Experimental data reported in patent US10519162B2, “6,7-dihydropyrazolo[1,5-α]pyrazin-4(5H)-one compounds and their use as negative allosteric modulators of mGluR2 receptors” (Janssen Pharmaceutica NV, priority 2014, dated 2019).

How the values were obtained:
rats = experiment: Reversal of the effect of the mGluR2 PAM JNJ-42153605-induced inhibition of scopolamine-induced hyperlocomotion (SCOP JNJ-42153605); format: in vivo, rat; settings: PO (oral route), rats, reversal criterion total distance >1500 cm; for ED50: Rattus norvegicus
Description: 2) Reversal of the Effect of the mGluR2 PAM JNJ-42153605-Induced Inhibition of Scopolamine-Induced Hyperlocomotion Apparatus
Motor activity was measured in microprocessor-based motor activity arenas (closed gray PVC cylinders with a height of 39 cm and a diameter of 31 cm). Each arena was placed on an infrared LED (8×8 LEDs) lit box (white PVC squared box; 40×40 cm^2; height 12.5 cm. An infrared-sensitive tube camera and a white light source were mounted to the ceiling above the observation chamber to track the animal. The total distance traveled (cm) was recorded and analyzed using the Noldus Ethovision XT Video Tracking System (Version 7.0.418; Noldus, Wageningen, The Netherlands). The intensity of the light within the activity cages (measured in the centre at the level of the floor) ranged between 4 and 8 LUX.
The rats were pretreated with test compound or vehicle at 60 min before the start of the activity recordings and placed into individual cages. The rats were challenged with JNJ-42153605 (3-(cyclopropylmethyl)-7-(4-phenylpiperidin-1-yl)-8-(trifluoromethyl)[1,2,4]triazolo[4,3-a]pyridine; WO2010/130424; Cid et al. J. Med. Chem. 2012, 55, 8770-8789) (20 mg/kg, i.v.) 30 min before the start of the activity recording combined with scopolamine (0.16 mg/kg, i.v.) just before the start of the activity measurements. Immediately after the injection of scopolamine, the rats were placed into the activity monitors and total distance travelled over the first 30 min was measured.
Solvent-Pretreated Control Rats.
Animals receiving the combination of JNJ-42153605 and scopolamine (n=433) almost always travelled a distance of less than 1500 cm (<1500 cm) (only 2.5% of the control rats travelled a distance of more than 1500 cm (>1500 cm)). On the other hand, animals challenged with scopolamine alone (n=215) always travelled a total distance of more than 1500 cm (>1500 cm) and almost always (in 95.8% of the rats) a distance of more than 4400 cm (>4400 cm). […] For reversal of the inhibitory effect of JNJ-42153605 on the scopolamine-induced hyperlocomotion, the following all-or-none criteria were adopted: (1) reversal: total distance >1500 cm.

human mGlu2 receptor = target: T1, human mGlu2 receptor (Homo sapiens, UniProt Q14416); experiment: [35S]GTPγS binding assay (mGluR2 negative allosteric modulation, glutamate ~EC80 60 μM); format: biochemical; settings: for Emax / GTPγS-hmGluR2 anGT Emax: maximal % inhibition relative to the control glutamate response (EC80 glutamate); for Emax: read-out: GTPγS-hmGluR2 anGT Emax; for IC50: membranes from CHO cells transfected with human mGlu2 receptor, glutamate ~EC80 (60 μM), pIC50 = −log IC50 (M), read-out: GTPγS-hmGluR2 anGT pIC50 (converted)
T1 construct: expressed in transfected cells; host or cells: CHO cells
T1 sequence (Q14416 19-872): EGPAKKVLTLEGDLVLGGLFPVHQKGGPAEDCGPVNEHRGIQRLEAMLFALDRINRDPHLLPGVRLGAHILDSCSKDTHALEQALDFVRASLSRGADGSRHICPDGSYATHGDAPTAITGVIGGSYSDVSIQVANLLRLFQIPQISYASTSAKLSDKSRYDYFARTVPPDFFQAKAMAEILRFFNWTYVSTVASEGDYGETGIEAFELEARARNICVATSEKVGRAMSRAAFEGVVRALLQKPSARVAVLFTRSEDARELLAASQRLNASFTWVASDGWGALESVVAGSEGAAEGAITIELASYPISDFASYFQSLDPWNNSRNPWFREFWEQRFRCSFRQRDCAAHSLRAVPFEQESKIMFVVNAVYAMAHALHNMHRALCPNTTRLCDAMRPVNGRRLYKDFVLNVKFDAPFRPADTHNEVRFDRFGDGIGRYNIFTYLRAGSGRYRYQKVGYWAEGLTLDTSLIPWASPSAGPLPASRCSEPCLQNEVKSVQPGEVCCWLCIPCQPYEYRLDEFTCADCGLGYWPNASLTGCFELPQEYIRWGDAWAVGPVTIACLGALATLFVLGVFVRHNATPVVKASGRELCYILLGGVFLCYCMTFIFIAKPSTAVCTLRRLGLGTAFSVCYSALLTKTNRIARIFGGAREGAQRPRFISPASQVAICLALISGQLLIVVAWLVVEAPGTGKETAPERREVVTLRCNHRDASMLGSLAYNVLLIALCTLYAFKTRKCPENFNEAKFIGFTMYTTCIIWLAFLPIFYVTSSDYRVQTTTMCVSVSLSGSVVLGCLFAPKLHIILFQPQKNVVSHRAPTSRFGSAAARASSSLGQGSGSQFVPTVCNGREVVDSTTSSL
Description: 1) [^35S]GTPγS Binding Assay
[^35S]GTPγS Binding Assay
Total reaction volume was 200 μl. […] Membrane-bound radioactivity was counted in a Topcount.

melting point [°C]	Emax (human mGlu2 receptor) [%]	IC50 (human mGlu2 receptor) [M]	GTPγS-hmGluR2 anGT Emax (human mGlu2 receptor) [%]	SMILES	ED50 (rats) [mg/kg]	ED50 SCOP JNJ-42153605 (rats) [mg/kg]
213.77	111	4.79e-09		COCc1cc(N2C[C@H](C)n3ncc(NC(=O)c4ccc(N)nc4)c3C2=O)ccc1C(F)(F)F [Co. No. 22]	> 2.5	
185.71	109	9.77e-10		Cc1cncc(C(=O)Nc2cnn3c2C(=O)N(c2ccc(Cl)c(Cl)c2)C[C@@H]3C)c1 [Co. No. 108]	> 0.63	
236.55	104	6.61e-09		C[C@H]1CN(c2ccc(C(F)(F)F)c(F)c2)C(=O)c2c(NC(=O)c3cnccn3)cnn21 [Co. No. 127]	> 0.63	
200.3	107	8.32e-09		Cc1ccncc1C(=O)Nc1cnn2c1C(=O)N(c1ccc(C(F)(F)F)c(C)c1)C[C@@H]2C [Co. No. 119]	> 0.63	
223.01	105	1.12e-08		Cc1cc(C(=O)Nc2cnn3c2C(=O)N(c2ccc(Cl)cc2)C[C@@H]3C)cc(N)n1 [Co. No. 203]	> 0.63	
217.01	109	9.55e-09		C[C@H]1CN(c2ccc(C(F)(F)F)c(F)c2)C(=O)c2c(NC(=O)c3cncc(F)c3)cnn21 [Co. No. 124]	> 0.63	
191.33	111	9.33e-09		COc1cnc(C(=O)Nc2cnn3c2C(=O)N(c2ccc(C(F)(F)F)cc2)C[C@@H]3C)cn1 [Co. No. 39]	> 2.5	
250.78	107	2.82e-09		C[C@H]1CN(c2ccc(C(F)(F)F)cc2)C(=O)c2c(NC(=O)c3ccc(N)cc3)cnn21 [Co. No. 204]	0.318	
225.49	106	2.51e-09		Cc1cc(N2C[C@H](C)n3ncc(NC(=O)c4cnccn4)c3C2=O)ccc1C(F)(F)F [Co. No. 114]	> 0.63	
186.11	106	1.07e-08		COc1cc(N2C[C@H](C)n3ncc(NC(=O)c4cccnc4)c3C2=O)ccc1C(F)(F)F [Co. No. 147]	> 0.63	
133.07	107	1.66e-09		COc1cncc(C(=O)Nc2cnn3c2C(=O)N(c2ccc(C(F)(F)F)c(Cl)c2)C[C@@H]3C)c1 [Co. No. 150]	> 0.63	
151.53	107	3.39e-09		Cc1cncc(C(=O)Nc2cnn3c2C(=O)N(c2ccc(C(F)(F)F)c(C)c2)C[C@@H]3C)c1 [Co. No. 115]	> 0.63	
161.97	113	1.29e-09		CNc1ncccc1C(=O)Nc1cnn2c1C(=O)N(c1ccc(C(F)(F)F)cc1)C[C@@H]2C [Co. No. 194]	0.318	
160.45	106	2.09e-08		COc1cncc(C(=O)Nc2cnn3c2C(=O)N(c2ccc(C(F)(F)F)c(Cl)c2)C[C@@H]3C)c1C [Co. No. 121]	> 0.63	
201.48	108	3.39e-09		C[C@H]1CN(c2ccc(C(F)(F)F)cc2)C(=O)c2c(NC(=O)c3ccccc3)cnn21 [Co. No. 16]	> 2.5	

Second part, the compound before the results:

SMILES	melting point [°C]	Emax (human mGlu2 receptor) [%]	IC50 (human mGlu2 receptor) [M]	GTPγS-hmGluR2 anGT Emax (human mGlu2 receptor) [%]	ED50 (rats) [mg/kg]	ED50 SCOP JNJ-42153605 (rats) [mg/kg]
Cc1cc(C(=O)Nc2cnn3c2C(=O)N(c2ccc(C(F)(F)F)c(Cl)c2)C[C@@H]3C)nc(N)n1 [Co. No. 181]	258.12	101	5.75e-09		> 0.63	
COc1cccc(C(=O)Nc2cnn3c2C(=O)N(c2ccc(C(F)(F)F)cc2)C[C@@H]3C)n1 [Co. No. 20]	190		4.57e-09	103	> 2.5	
C[C@H]1CN(c2ccc(Cl)c(Cl)c2)C(=O)c2c(NC(=O)c3cncc(F)c3)cnn21 [Co. No. 109]	128.16	105	1.38e-09		> 0.63	
C[C@H]1CN(c2ccc(Cl)cc2)C(=O)c2c(NC(=O)c3cccnc3N)cnn21 [Co. No. 198]	209.11	109	4.07e-09		> 0.63	
COc1cncc(C(=O)Nc2cnn3c2C(=O)N(c2ccc(Cl)c(Cl)c2)C[C@@H]3C)c1 [Co. No. 149]	184.46	107	1.66e-09		> 0.63	
C[C@H]1CN(c2ccc(SC(F)(F)F)cc2)C(=O)c2c(NC(=O)c3cccnc3)cnn21 [Co. No. 179]	110.73	106	5.89e-09		> 0.63	
C[C@H]1CN(c2ccc(C(F)(F)F)cc2)C(=O)c2c(NC(=O)c3cccnc3NCCO)cnn21 (racemic) [Co. No. 213]	168.55	103	1.02e-09		1.12	
C[C@H]1CN(c2ccc(C(F)(F)F)c(F)c2)C(=O)c2c(NC(=O)c3cccnc3)cnn21 [Co. No. 126]	226.14		4.17e-09	110		>0.63
C[C@H]1CN(c2ccc(C(F)(F)F)c(C#N)c2)C(=O)c2c(NC(=O)c3ccc(N)nc3)cnn21 [Co. No. 26]	216.96	106	6.46e-09		> 2.5	
COc1cc(N2C[C@H](C)n3ncc(NC(=O)c4cncc(C)c4)c3C2=O)ccc1C(F)(F)F [Co. No. 117]	166.32	104	8.51e-09		> 0.63	
Cc1cncc(C(=O)Nc2cnn3c2C(=O)N(c2ccc(C(F)(F)F)cc2)C[C@@H]3C)c1 [Co. No. 99]	165.21	114	3.98e-09		> 2.5	
COc1cncc(C(=O)Nc2cnn3c2C(=O)N(c2ccc(C(F)(F)F)c(C)c2)C[C@@H]3C)c1 [Co. No. 151]	135.98	106	3.16e-09		> 0.63	
Cc1ccnc(N)c1C(=O)Nc1cnn2c1C(=O)N(c1ccc(C(F)(F)F)cc1)C[C@@H]2C (racemic) [Co. No. 192]	177.39	110	2.69e-08		> 0.63	
COc1cncc(C(=O)Nc2cnn3c2C(=O)N(c2ccc(C(F)(F)F)cc2)C[C@@H]3C)c1C [Co. No. 122]	181.87	105	1.91e-07		> 0.63	
Cc1cnc(N)c(C(=O)Nc2cnn3c2C(=O)N(c2ccc(S(F)(F)(F)(F)F)cc2)C[C@@H]3C)c1 [Co. No. 200]	197.51	111	1.48e-09		> 0.63	
C[C@H]1CN(c2ccc(C(F)(F)F)cc2)C(=O)c2c(NC(=O)c3nccnc3N)cnn21 [Co. No. 206, 3-Amino-N-[(7S)-7-methyl-4-oxo-5-[4-(trifluoromethyl)phenyl]-6,7-dihydropyrazolo[1,5-a]pyrazin-3-yl]pyrazine-2-carboxamide]	205.79	110	3.02e-09		0.505	
COCc1cccc(C(=O)Nc2cnn3c2C(=O)N(c2ccc(C(F)(F)F)cc2)C[C@@H]3C)c1 [Co. No. 30]	160.03	113	7.08e-09		> 2.5	
